Experimental data taken from patent publication US12023345B2, “Compositions and methods for treating lysosomal disorders” (RUSH UNIVERSITY MEDICAL CENTER, priority 2014, dated 2024).

Experiments:
[1] = system: PPAR luciferase reporter (PPRE-x3-TK-luc); experiment: PPAR luciferase reporter (PPRE-x3-TK-luc) in astrocytes; type: cell-based, mouse; settings: different doses of aspirin, 4 h
Description: FIG. 14(A)-(B) illustrates activation of PPARα by aspirin in primary mouse astrocytes. 14(A) Cells were treated with 5 μM aspirin for different min intervals followed by isolation of nuclear extracts and electrophoretic mobility shift assay for monitoring DNA-binding activity of PPARα using PPARα-binding site of the Tfeb promoter as a probe. 14(B) Astrocytes isolated from wild type, PPARα (−/−) and PPARβ (−/−) mice were transfected with PPAR luciferase reporter (PPRE-x3-TK-luc) plasmid and after 24 h of transfection, cells were stimulated with different doses of aspirin. After 4 h, firefly luciferase activity was measured in total cell extracts. Results are mean +SD of three different experiments. ^ap<0.001 vs control.

[2] = system: Tfeb promoter (pTFEB-Luc); experiment: Tfeb promoter-driven luciferase reporter activity in mouse primary astrocytes; type: cell-based; settings: p(WT)Tfeb-Luc, different doses of aspirin, 4 h
Source text: Construction of Mouse Tfeb Promoter-driven Reporter Construct: Mouse genomic DNA isolated from primary mouse astrocytes was used as the template during PCR. The 5′ flanking sequence of the mouse TFEB (−916/+61) gene was isolated by PCR. Primers were designed from gene bank sequences. Tfeb: sense: 5′- acgcgt CCAGGAGCCAGGGACGGGGTACATCTC -3′ (SEQ ID NO.: 11); antisense: 5′- agatct AAGGAGAAACTGAGTCCGGGCAGAAGG -3′ (SEQ ID NO.: 12). The sense primer was tagged with an Mlu1 restriction enzyme site while the antisense primer was tagged with Bgl II. The PCR was performed using an Advantage-2 PCR kit (Clontech) according to the manufacturer's instruction. The resulting fragments were gel purified and ligated into the PGEM-TEasy vector (Promega). These fragments were further subcloned into the PGL-3 Enhancer vector after digestion with corresponding restriction enzymes and verification by sequencing ACGT Inc. DNA Sequencing Services. […]
Assay of Tfeb Promoter-driven Reporter Activity: Cells plated at 50-60% confluence in 12-well plates were cotransfected with 0.25 μg of pTFEB(WT)-Luc, pTFEB(Mu)-Luc and using Lipofectamine Plus (Invitrogen). […] Firefly luciferase activities were analyzed in cell extracts using the Luciferase Assay System kit (Promega) in a TD-20/20 Luminometer (Turner Designs) as described earlier (33, 34).

Tfeb = experiment: TFEB protein by immunoblot in mouse primary astrocytes; type: cell-based; settings: aspirin 2 and 5 μM, 12 h, serum-free
Description: Isolation of Primary Mouse Astroglia: Astroglia were isolated from mixed glial cultures as described (24, 25) according to the procedure of Giulian and Baker (26). Briefly, on day 9, the mixed glial cultures were washed three times with Dulbecco's modified Eagle's medium/F-12 and subjected to shaking at 240 rpm for 2 h at 37° C. on a rotary shaker to remove microglia. After 2 days, the shaking was repeated for 24 h for the removal of oligodendroglia and to ensure the complete removal of all nonastroglial cells. The attached cells were seeded onto new plates for further studies. Immunoblotting: Western blotting was conducted as described earlier (31, 32) with modifications. Briefly, cells were scraped in 1× RIPA buffer, protein was measured using Bradford reagent and sodium dodecyl sulfate (SDS) buffer was added and electrophoresed on NuPAGE® Novex® 4-12% Bis-Tris gels (Invitrogen) and proteins transferred onto a nitrocellulose membrane (Bio-Rad) using the Thermo-Pierce Fast Semi-Dry Blotter. The membrane was then washed for 15 min in TBS plus Tween 20 (TBST) and blocked for 1 hr in TBST containing BSA. […] Densitometric Analysis: Protein blots were analyzed using ImageJ (NIH, Bethesda, Md.) and bands were normalized to their respective β-actin loading controls. […]

TPP1 [3] = experiment: TPP1 activity assay on cell extract of primary mouse astrocytes; type: cell-based; settings: 24 h
Description: (§1) 12(A) Cells were treated with different concentrations of aspirin for 24 h under serum-free condition followed by Western blot for TPP1. 12(B) Cells were treated with 5 μM aspirin for different time periods under serum-free condition followed by Western blot for TPP1. Actin was run as a house keeping molecule. 12(C) Cells were treated with different concentrations of aspirin for 24 h under serum-free condition followed by TPP1 activity assay using cell extract containing 5 μg of total protein and Ala-Ala-Phe 7-amido-4-methylcoumarin as substrate. Results represent three independent experiments.

TPP1 [4] = experiment: TPP1 protein by Western blot in primary mouse astrocytes; type: cell-based
Description: as §1
Immunoblotting: Western blotting was conducted as described earlier (31, 32) with modifications. Briefly, cells were scraped in 1× RIPA buffer, protein was measured using Bradford reagent and sodium dodecyl sulfate (SDS) buffer was added and electrophoresed on NuPAGE® Novex® 4-12% Bis-Tris gels (Invitrogen) and proteins transferred onto a nitrocellulose membrane (Bio-Rad) using the Thermo-Pierce Fast Semi-Dry Blotter.

In the case of `CC(=O)Oc1ccccc1C(=O)O` [aspirin], the PPRE-driven luciferase activity ([1]; PPARα (−/−) astrocytes) is reported as “not PPARα (−/−)”, the PPRE-driven luciferase activity ([1]; PPARβ (−/−) astrocytes) is reported as “increased PPRE-driven luciferase activity” and the PPRE-driven luciferase activity ([1]; WT astrocytes) is reported as “increased PPRE-driven luciferase activity”. For the same compound, the “Tfeb promoter driven luciferase activity” value [2] was “induced Tfeb promoter driven luciferase activity”, the “TFEB protein level (Western blot)” value (Tfeb) was “able to increase the protein level of TFEB” and the TPP1 activity (TPP1 [3]; aspirin 10 μM) was “not 10 μM”. The TPP1 activity (TPP1 [3]; aspirin 2 and 5 μM) was “increase in TPP1 activity”, the “earliest time at which increase in TPP1 protein was evident” value (TPP1 [4]; 5 μM aspirin) was 2 h and the “time of maximum increase in TPP1 protein” value (TPP1 [4]; 5 μM aspirin) was 12 h. For the same compound, the “TPP1 protein (Western blot), dose” value (TPP1 [4]; aspirin 2 and 5 μM, 24 h) was “increase in TPP1 protein”.
